Reference: patent US20240165200A1, “CATH2 AND DERIVATIVES FOR INHIBITING STREPTOCOCCUS SUIS” (Universiteit Utrecht Holding B.V., priority 2021, published 2024)
In brackets after ≈: the same amount, converted by molar mass. Where a SMILES comes first, the peptide text is derived from it. [ ]: non-standard residue; d: D form.

How the values were obtained:
[1] = test system: murine macrophage cell-line; conditions: biological form of CATH2; cited from earlier work
murine BMDMs = format: cell-based, mouse
Method: FIG. 2: Peptide titration on BMDM and BMDCs for cytotoxicity and expression of cell markers. Mouse BMDM (A, C, E, G) and BMDCs (B, D, F, H) were cultured for 6 days with […]. Different concentrations were added at day 6 (A, B, E, F) or the cells were primed with different concentrations peptides at day 1-2 (C, D, G, H). At day 7, cell viability was tested using WST-1 reagent, with no-peptide-control set to 100% viability (A-D) and cells were analyzed by flowcytometry for cell marker expression (E-H). Results are depicted as mean +/−S.E.M. (n=3).
Bone marrow cells, isolated from the femur and tibia of both hindlegs, were stored in FCS/10% DMSO in liquid nitrogen. Cells were grown at a concentration of 5×10^5 cells mL^−1 in RPMI-1640 without phenol red (Thermo Fisher Scientific, MA, USA) supplemented with 10% fetal calf serum (FCS) (Corning, NY, USA) and 1% Penicillin/streptomycin (Thermo Fisher Scientific). […] Cells were stained with antibodies (table 1) for 20 minutes, washed and measured using the BD FACSCanto-II (BD bioscience) and analyzed with FlowJo software (Ashland, OR, USA).
WST-1 reagent (roche) was used for cell viability of BMDCs and BMDM as well as for cell activity of activated splenocytes. […] After 30-60 minutes, colorimetric changes were measured at 450 nm using a FLUOstar Omega microplate reader (BMG Labtech GmbH, Ortenberg, Germany). […]

[2] = Isothermal titration calorimetry (ITC) of peptide binding to LTA-SA; design: species or system S. aureus; conditions: 200 μM peptide titrated into LTA-SA, 37° C., dPBS; read-out: Kd (dissociation coefficient)
Method: Thermodynamic binding capacity of 200 μM D-CATH2 (A), DC(1-21) (B), and DC(4-21) (C) to 200 μM LTA-SA was measured using isothermal titration calorimetry (ITC). Every 300 seconds, 1.99 μl peptide solution was titrated into 164 μl LTA solution. The corrected heat rate (μJ sec^−1) is plotted (top panel) and normalized integrated heat was plotted against the molar ratio between LTA and the peptide (lower panel). Experiments (N=3) were averaged before plotting and fitting an independent model. The corrected heat rate of D-CATH2, DC(1-21), and DC(4-21) is depicted for comparison (D).
The interaction between the D-CATH2 peptides and LTA-SA was tested using isothermal titration calorimetry (ITC). All ITC experiments were performed on a Low Volume NanoITC (TA instruments-Waters LLC, New Castle, USA). 800 μM of LTA-SA or peptide solution was prepared in MilliQ after which a 4-fold dilution in dPBS (Gibco) was made. The chamber was filled with 164 μl LTA-SA and the peptide was loaded in the syringe. Every 300 seconds, 1.99 μL peptide was titrated into the chamber at 37° C. Data was analyzed using the Nano Analyze software (TA instruments-Waters LLC). The data of three experiments was averaged and an independent model was used to determine the peptide-LTA interaction.

[3] = test system: 4 different S. suis serotype 2 strains; assay: Colony count assay (MBC), summary over the four strains; format: cell-based, Streptococcus suis; conditions: four sub-strains, RPMI+10% FCS medium
Method: FIG. 1: D-CATH2 and its derivatives efficiently kills several S. suis type2 strains in both THB and RPMI+FCS. Antibacterial activity of D-CATH2 and its derivatives against 10^6 CFU ml^−1 S. suis type 2 strains (P1/7, D282, 5735, and OV625) was tested using a colony count assay in both THB medium (A) and RPMI+FCS (B). 2 log CFU mL^−1 was set as detection limit for the experiment. Data is plotted as average +/−SEM (N=3-4).
S. suis Serotype 2 strains P1/7, D282, S735, and OV625 were grown into mid-logarithmic phase for 3-4 hours at 37° C. in THB, after which bacteria were centrifuged at 1200×g for 10 minutes at 4° C. and resuspended in fresh THB. Concentration was determined by measuring the OD value at 620 nm with an OD of 0.1 is 1×10^8 colony forming units (CFU) mL^−1. 10^6 CFU mL^−1 S suis was mixed with different concentrations of D-CATH and derivatives (0.63−40 μM) and left for 3 hours at 37° C. Ten-fold dilutions were prepared and spread in Tryptan Soy agar (TSA) plates containing 5% (vol/vol) defibrinated sheep blood (Oxoid) and colonies were allowed to grow for 48 hours. Minimal Bactericidal Concentration (MBC) was defined as ≤100 CFU mL^−1 (2 logCFU mL^−1), the detection limit of the assay.

Compound: RFGRFLRKIRRFRPKVTITIQGSARFG [CATH2, chicken cathelicidin-2, 27 amino acid C-terminal peptide]
- LPS and LTA activation [1]: inhibit

Compound: CC[C@@H](C)[C@@H](NC(=O)[C@@H](CCCCN)NC(=O)[C@@H](CCCNC(=N)N)NC(=O)[C@@H](CC(C)C)NC(=O)[C@@H](Cc1ccccc1)NC(=O)[C@@H](CCCNC(=N)N)NC(=O)CNC(=O)[C@@H](Cc1ccccc1)NC(=O)[C@H](N)CCCNC(=N)N)C(=O)N[C@H](CCCNC(=N)N)C(=O)N[C@H](CCCNC(=N)N)C(=O)N[C@H](Cc1ccccc1)C(=O)N[C@H](CCCNC(=N)N)C(=O)N1CCC[C@@H]1C(=O)N[C@H](CCCCN)C(=O)N[C@@H](C(=O)N[C@@H](C(=O)N[C@@H](C(=O)N[C@@H](C(=O)N[C@@H](C(=O)N[C@H](CCC(N)=O)C(=O)NCC(=O)N[C@H](CO)C(=O)N[C@H](C)C(=O)N[C@H](CCCNC(=N)N)C(=O)N[C@H](Cc1ccccc1)C(N)=O)[C@H](C)CC)[C@H](C)O)[C@H](C)CC)[C@H](C)O)C(C)C [D-CATH2]
- cell viability of BMDMs (murine BMDMs): relative sensitive

Compound: CC[C@@H](C)[C@@H](NC(=O)[C@@H](CCCCN)NC(=O)[C@@H](CCCNC(=N)N)NC(=O)[C@@H](CC(C)C)NC(=O)[C@@H](Cc1ccccc1)NC(=O)[C@H](N)CCCNC(=N)N)C(=O)N[C@H](CCCNC(=N)N)C(=O)N[C@H](CCCNC(=N)N)C(=O)N[C@H](Cc1ccccc1)C(=O)N[C@H](CCCNC(=N)N)C(=O)N1CCC[C@@H]1C(=O)N[C@H](CCCCN)C(=O)N[C@@H](C(=O)N[C@@H](C(=O)N[C@@H](C(=O)N[C@@H](C(=O)N[C@@H](C(=O)N[C@H](CCC(N)=O)C(N)=O)[C@H](C)CC)[C@H](C)O)[C@H](C)CC)[C@H](C)O)C(C)C [DC(4-21), RFLRKIRRFRPKVTITIQ-NH2] (H-[dR][dF][dL][dR][dK][dI][dR][dR][dF][dR][dP][dK][dV][dT][dI][dT][dI][dQ]-NH2; N-terminus assumed)
- Kd [2]: 2.12 µM
- MBC [3]: 2.5 µM (≈ 5.82 µg/mL)

Compound: CC[C@@H](C)[C@@H](NC(=O)[C@@H](CCCCN)NC(=O)[C@@H](CCCNC(=N)N)NC(=O)[C@@H](CC(C)C)NC(=O)[C@@H](Cc1ccccc1)NC(=O)[C@@H](CCCNC(=N)N)NC(=O)CNC(=O)[C@@H](Cc1ccccc1)NC(=O)[C@H](N)CCCNC(=N)N)C(=O)N[C@H](CCCNC(=N)N)C(=O)N[C@H](CCCNC(=N)N)C(=O)N[C@H](Cc1ccccc1)C(=O)N[C@H](CCCNC(=N)N)C(=O)N1CCC[C@@H]1C(=O)N[C@H](CCCCN)C(=O)N[C@@H](C(=O)N[C@@H](C(=O)N[C@@H](C(=O)N[C@@H](C(=O)N[C@@H](C(=O)N[C@H](CCC(N)=O)C(N)=O)[C@H](C)CC)[C@H](C)O)[C@H](C)CC)[C@H](C)O)C(C)C [DC(1-21)]
- cell viability of BMDMs (murine BMDMs): especially
